Results on six molecules are retold here after patent US8916149B2, “Preventing and treating sepsis” (University of Rochester, priority 2008, dated 2014).

For test [1], the system named is human neutrophils. Put plainly: Random migration of neutrophils on FN-coated cover glass (live-cell imaging). The format is cell-based. The settings on record: for reversal of the inhibitory effect of rhAPC on neutrophil migration: agonists of PAR-1 and S1P1; for random migration of neutrophils on FN induced by fMLP: 10 μg/ml protein. Here is the method:
Delta T dishes were coated with human FN (50 μg/ml, BD Biosciences, San Jose, Calif.) for overnight at 4° C. and then for 4 h at room temperature. Plates were then rinsed with L-15 media. […] The cells were then added to FN-coated dishes in 1.5 ml of L-15 with 2 mg/ml of glucose. For neutrophil live cell staining, 2 μM Green Cell Tracker CMFDA (5-chloromethylfluorescein diacetate; Molecular Probes, Carlsbad, Calif.) was used. Temperature was maintained at 37° C. throughout the experiment using a FCS2 live-cell imaging chamber (Bioptechs, Butler, Pa.). Images were acquired for 30 to 60 minutes under a 10× objective lens using a Nikon TE-2000U inverted microscope. Phase contrast images were acquired every 5 seconds and fluorescence images every 30 seconds. Cell paths were traced using MetaVue™ imaging software (Molecular Devices Corporation, Downingtown, Pa.).
Random migration was investigated by adding fMLP or IL-8 to media at a final concentration of 10^−8M and analyzed by manually tracing the outline of each cell in selected frames (i.e., at 50 second intervals). The x and y coordinates of each cell were measured using ImageJ software and were corrected so that the starting position was x=0 and y=0.
The time-lapsed images of migrating neutrophils were taken under phase contrast microscopy. Each image was thresholded and binarized based on brightness to define the centroids of the neutrophils. The closest centroids between consecutive images were linked as a trajectory under the assumption that these centroids were made by the same neutrophil. The maximum distance between the closest centroids was also defined to preclude the artifacts due to cells moving into and out of the field of view.

The subject of test [2] is septic mice. The settings on record: 'mid-grade' sepsis (CLP), 200 μg i.v. 12 hours before and after CLP. The procedure: (§1) 200 μg of the RGD peptide or PBS was given 12 hours before and after CLP via i.v. injection (n=20 per group). […] 200 μg of the RGD peptide or PBS was given via i.v. injection before receiving […] of LPS (i.p.) (n=10 per group). The statistical significance of mortality was determined by the Kaplan-Meyer log-rank test.
CLP was used to induce acute septic peritonitis as described (Rhee et al., J Surg Res 115:74 (2003)). Briefly, mice (C57BL/6, 6-8 weeks) were anesthetized using inhaled Isoflurane, a midline incision (approximately 1 cm) was made below the diaphragm, the cecum was […], ligated approximately […] distal and then punctured through and through with a 22-gauge needle. Cecum was gently squeezed to excise its contents. Sham animals underwent the same procedure with no ligation or puncture. The abdominal incision was then closed in layers with Ethilon 6.0 suture. Mice were resuscitated with 1.0 ml of Ringer's solution via subcutaneous injection. Animals recovered under a heat lamp for approximately 30 minutes and were allowed food and water ad lib.

For test [3], the target named is β1 integrins (Homo sapiens, UniProt P05556). To be noted: cited from earlier work.
Chain of β1 integrins (P05556 21-798): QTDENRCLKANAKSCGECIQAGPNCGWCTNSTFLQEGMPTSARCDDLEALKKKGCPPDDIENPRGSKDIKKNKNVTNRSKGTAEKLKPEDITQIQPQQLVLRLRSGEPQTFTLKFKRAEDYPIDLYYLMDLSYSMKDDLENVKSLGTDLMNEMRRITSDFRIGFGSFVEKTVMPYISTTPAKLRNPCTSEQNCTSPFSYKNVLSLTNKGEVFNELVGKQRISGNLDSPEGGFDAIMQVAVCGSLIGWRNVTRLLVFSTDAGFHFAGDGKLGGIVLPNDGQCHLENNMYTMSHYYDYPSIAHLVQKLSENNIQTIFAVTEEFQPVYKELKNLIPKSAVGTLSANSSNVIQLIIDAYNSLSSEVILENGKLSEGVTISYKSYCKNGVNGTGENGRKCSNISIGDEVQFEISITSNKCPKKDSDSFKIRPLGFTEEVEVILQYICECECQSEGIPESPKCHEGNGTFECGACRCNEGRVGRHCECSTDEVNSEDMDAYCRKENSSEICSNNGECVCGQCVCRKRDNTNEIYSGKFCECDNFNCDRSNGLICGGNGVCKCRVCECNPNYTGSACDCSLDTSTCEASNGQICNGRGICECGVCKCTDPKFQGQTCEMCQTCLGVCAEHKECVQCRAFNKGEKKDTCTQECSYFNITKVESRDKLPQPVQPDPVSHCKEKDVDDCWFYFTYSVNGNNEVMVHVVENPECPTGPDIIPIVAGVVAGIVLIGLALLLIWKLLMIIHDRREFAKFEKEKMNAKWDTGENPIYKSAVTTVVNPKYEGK
Test [4] relates to mice challenged with an LD90 of LPS. The settings on record: LPS at LD90, single dose 200 μg i.v.; control 90%. Here is the method: as §1
In order to examine whether the RGD peptide alters mortality in ‘high-grade’ sepsis, 90% mortality was induced by endotoxemia.

In test [5] the target is T1, β3 integrins (Homo sapiens, UniProt P05106).
T1 sequence (P05106 27-788): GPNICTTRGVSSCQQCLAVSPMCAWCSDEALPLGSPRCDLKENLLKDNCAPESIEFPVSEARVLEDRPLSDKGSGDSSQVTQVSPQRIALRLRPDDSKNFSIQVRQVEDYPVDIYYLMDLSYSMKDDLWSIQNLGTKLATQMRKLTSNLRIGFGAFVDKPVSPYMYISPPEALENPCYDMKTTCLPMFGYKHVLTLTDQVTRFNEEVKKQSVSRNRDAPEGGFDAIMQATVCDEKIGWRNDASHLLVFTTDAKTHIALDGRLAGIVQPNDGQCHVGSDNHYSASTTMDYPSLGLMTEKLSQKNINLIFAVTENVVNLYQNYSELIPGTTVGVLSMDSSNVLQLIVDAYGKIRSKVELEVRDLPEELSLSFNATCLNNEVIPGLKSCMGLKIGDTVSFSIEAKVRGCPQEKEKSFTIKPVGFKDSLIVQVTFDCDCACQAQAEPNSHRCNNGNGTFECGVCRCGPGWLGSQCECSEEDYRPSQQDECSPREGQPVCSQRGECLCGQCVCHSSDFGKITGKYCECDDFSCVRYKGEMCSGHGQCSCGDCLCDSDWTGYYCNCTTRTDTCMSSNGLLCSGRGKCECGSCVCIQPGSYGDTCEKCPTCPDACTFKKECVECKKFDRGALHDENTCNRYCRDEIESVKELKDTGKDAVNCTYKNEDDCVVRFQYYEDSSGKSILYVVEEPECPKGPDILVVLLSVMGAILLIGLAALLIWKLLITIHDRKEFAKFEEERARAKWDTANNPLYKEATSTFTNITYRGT
The settings on record: cited from earlier work.

For test [6], the system named is human neutrophils. Put plainly: Neutrophil adhesion assay on immobilized fibronectin (FN). The format is cell-based. The settings on record: 10 μg/ml protein. Here is the method:
The adhesion assay was carried out essentially as described (Vorup-Jensen et al., PNAS 102:1614 (2005)). Cover slips were coated with FN in coating buffer (150 mM NaCl/20 mM Tris.HCl, pH 9.0) for over night at 4° C. and for 4 hours at room temperature. Residual binding sites were blocked by incubation of the wells with 0.05% (wt/vol) polyvinylpyrrolidone in PBS for 30 minutes at room temperature. […] The cover slips were aspirated, and washed with L15 medium. […] Cells (250 μl) were then immediately added, and further incubated at 37° C. for 15 minutes. Unbound cells were then washed with warm L15 medium. The bound cells were then fixed with formaldehyde. For each experimental condition from three independent donors, five random phase-contrast images were obtained, and the number of cells in each well was scored from printed micrographs.

In test [7] the target is T2, hEPCR-mCFP and β1-mYFP (Homo sapiens, UniProt P05556+Q9UNN8).
T2 construct: expressed in transfected cells; host or cells: HEK293
T2 sequence (Q9UNN8 18-238): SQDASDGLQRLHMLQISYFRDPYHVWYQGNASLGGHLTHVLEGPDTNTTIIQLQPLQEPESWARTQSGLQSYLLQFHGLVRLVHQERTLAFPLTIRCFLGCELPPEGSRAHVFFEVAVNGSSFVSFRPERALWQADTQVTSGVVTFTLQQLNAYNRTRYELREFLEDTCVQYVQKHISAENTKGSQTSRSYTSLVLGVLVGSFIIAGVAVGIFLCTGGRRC
T2 sequence (P05556 21-798): as the sequence (P05556 21-798) above
Put plainly: Dynamic FRET (TIRF) between hEPCR-mCFP and β1-mYFP in HEK293 cells. The format is cell-based. The procedure: Dynamic FRET imaging was carried out using a Nikon Eclipse TE2000-U microscope (Nikon, Melville, N.Y.) equipped with a Dual-View (Optical Insights, Tucson, Ariz.) and CFP/YFP dual-band filter set (Chroma, Rockingham, Vt.). TIRF imaging was performed with a white light TIRF aperture diaphragm and a 100×TIRF 1.49 NA oil immersion objective coupled to a QuantEM EMCCD (Roper Scientific, Tucson, Ariz.). The microscope was controlled by NIS element software (Nikon, Melville, N.Y.) and data analysis was performed with AutoDeblur (Autoquant Imaging, Troy, N.Y.) by the sensitized emission method (Gordon et al., Biophys. J. 74:2702 (1998)). 48 hours after co-transfection with hEPCR-mCFP and β1-mYFP DNA construct in Delta T dish (Fisher Scientific, Pittsburgh, Pa.), HEK293 cells were washed with PBS and then 1 ml L15 medium supplemented with 2 mg/ml D-glucose. Cells were equilibrated for about 10 minutes at 37° C. in a FCS2 live cell imaging chamber (Bioptechs, Butler, Pa.). […]
Therefore, it was tested whether the anti-EPCR antibody relieved the rhAPC-induced inhibition of neutrophil adhesion on FN. […] Since the ligand will only bind to cell surface receptors, optical measurements were confined to the plasma membrane using through the objective total internal reflection fluorescence (TIRF).

The target of test [8] is T3, α3β1 (Homo sapiens, UniProt P05556+P26006).
T3 construct: purchased US Biological, Swampscott, Mass
T3 sequence (P26006 33-872 limits assumed): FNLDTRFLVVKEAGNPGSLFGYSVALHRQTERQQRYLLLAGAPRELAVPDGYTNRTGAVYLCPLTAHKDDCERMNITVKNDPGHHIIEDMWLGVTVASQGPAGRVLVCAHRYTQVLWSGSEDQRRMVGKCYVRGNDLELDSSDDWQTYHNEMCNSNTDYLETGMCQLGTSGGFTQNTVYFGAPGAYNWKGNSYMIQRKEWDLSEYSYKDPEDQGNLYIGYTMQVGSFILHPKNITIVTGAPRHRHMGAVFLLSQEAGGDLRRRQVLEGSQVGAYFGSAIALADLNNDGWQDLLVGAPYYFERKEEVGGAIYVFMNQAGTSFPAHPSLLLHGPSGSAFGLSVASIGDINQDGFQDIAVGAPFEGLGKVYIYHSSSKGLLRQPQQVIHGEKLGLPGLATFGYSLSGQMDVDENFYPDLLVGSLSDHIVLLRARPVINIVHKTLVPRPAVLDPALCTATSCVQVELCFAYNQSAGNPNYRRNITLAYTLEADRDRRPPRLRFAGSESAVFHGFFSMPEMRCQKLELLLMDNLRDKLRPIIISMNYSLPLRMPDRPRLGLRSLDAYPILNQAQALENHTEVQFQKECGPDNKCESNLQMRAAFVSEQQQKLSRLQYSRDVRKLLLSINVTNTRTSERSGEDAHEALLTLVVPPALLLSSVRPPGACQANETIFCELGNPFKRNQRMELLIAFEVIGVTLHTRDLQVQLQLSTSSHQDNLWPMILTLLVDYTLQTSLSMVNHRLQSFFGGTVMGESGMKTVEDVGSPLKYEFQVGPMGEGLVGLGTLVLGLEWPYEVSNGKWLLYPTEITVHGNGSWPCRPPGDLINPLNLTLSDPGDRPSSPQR
T3 sequence (P26006 876-1051 partner limits assumed): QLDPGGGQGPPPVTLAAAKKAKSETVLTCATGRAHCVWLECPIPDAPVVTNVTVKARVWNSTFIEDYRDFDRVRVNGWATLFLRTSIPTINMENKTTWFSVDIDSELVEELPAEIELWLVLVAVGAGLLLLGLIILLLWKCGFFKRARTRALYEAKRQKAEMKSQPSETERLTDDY
T3 sequence (P05556 21-798): as the sequence (P05556 21-798) above
Put plainly: Solid phase integrin ligand binding assay. The settings on record: 1 mM Mn2+, 1 mM Ca2+, 1 mM Mg2+. The procedure:
(§2) The solid phase binding assay was performed using purified soluble human α3β1, α5β1, and αVβ3 (US Biological, Swampscott, Mass.). Two (2) μg/ml of soluble integrins were added to microtiter wells for capture with immobilized monoclonal antibody against β1 or β3 subunits (mAb TS2/6 for β1 and mAb BB10 (Chemicon, Temecula, Calif.) for β3 integrins). […] After washing, bound APC was chromogenically detected by peroxidase-streptavidin conjugate anti-PC (Diapharma, West Chester, Ohio) or chromogenic substrate S-2366 (Diapharma, West Chester, Ohio). To minimize dissociation, all wash buffers contained 1 mM Mn^2+, and <15 minutes elapsed between the end of binding and beginning of color development. Functional blocking antibodies for integrins were from Chemicon (Temecula, Calif.).
(§3) Among the neutrophil integrins that recognize the RGD motif, α3β1, α5β1, and αVβ3 are key in regulating neutrophil chemotaxis (Yauch et al., Mol. Biol. Cell 9:2751 (1998); Burns et al., J. Immunol. 166:4644 (2001); Sixt et al., J. Biol. Chem. 276:18878 (2001)). To test whether APC can bind directly to the integrins, an ELISA-like solid phase receptor-binding assay was performed (FIG. 2E). Soluble α3β1, α5β1, and αVβ3 were captured onto microtiter wells using mAbs specific for β1 or β3.

Test [9] deals with T4, αVβ3 (Homo sapiens, UniProt P05106+P06756).
T4 construct: purchased US Biological, Swampscott, Mass
T4 sequence (P06756 31-889 limits assumed, one chain of several): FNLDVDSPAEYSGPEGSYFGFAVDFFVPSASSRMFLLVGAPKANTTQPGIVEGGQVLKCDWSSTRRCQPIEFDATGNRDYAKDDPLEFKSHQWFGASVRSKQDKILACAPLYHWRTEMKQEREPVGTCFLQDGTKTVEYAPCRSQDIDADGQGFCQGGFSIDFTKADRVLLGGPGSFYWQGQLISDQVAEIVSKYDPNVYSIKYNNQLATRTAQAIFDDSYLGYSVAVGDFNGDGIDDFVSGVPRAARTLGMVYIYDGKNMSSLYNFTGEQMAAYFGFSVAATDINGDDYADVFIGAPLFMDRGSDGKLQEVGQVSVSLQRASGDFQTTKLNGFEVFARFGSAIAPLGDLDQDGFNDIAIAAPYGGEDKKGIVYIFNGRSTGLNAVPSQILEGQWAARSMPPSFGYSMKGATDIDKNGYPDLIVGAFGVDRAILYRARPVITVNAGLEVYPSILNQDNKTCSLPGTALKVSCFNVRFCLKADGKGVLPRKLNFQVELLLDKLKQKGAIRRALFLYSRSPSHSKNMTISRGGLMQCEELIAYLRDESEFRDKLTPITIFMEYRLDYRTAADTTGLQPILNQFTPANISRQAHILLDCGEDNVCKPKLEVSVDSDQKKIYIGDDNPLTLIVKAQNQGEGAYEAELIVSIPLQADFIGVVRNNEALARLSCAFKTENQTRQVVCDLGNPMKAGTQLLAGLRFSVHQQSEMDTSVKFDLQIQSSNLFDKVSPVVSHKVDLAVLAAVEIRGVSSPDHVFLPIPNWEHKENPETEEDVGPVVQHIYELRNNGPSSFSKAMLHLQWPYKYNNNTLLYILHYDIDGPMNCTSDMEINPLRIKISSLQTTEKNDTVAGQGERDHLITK
T4 sequence (P06756 891-1048 partner limits assumed, one chain of several): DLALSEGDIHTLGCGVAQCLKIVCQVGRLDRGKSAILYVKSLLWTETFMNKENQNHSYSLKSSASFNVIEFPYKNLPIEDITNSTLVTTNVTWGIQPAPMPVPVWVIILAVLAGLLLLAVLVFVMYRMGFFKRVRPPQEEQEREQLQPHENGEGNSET
Put plainly: Solid phase integrin ligand binding assay. To be noted: 1 mM Mn2+, 1 mM Ca2+, 1 mM Mg2+. The procedure:
as §2, §3

In test [10] the target is T5, α5β1 (Homo sapiens, UniProt P05556+P08648).
T5 construct: purchased US Biological, Swampscott, Mass
T5 sequence (P08648 42-894 limits assumed): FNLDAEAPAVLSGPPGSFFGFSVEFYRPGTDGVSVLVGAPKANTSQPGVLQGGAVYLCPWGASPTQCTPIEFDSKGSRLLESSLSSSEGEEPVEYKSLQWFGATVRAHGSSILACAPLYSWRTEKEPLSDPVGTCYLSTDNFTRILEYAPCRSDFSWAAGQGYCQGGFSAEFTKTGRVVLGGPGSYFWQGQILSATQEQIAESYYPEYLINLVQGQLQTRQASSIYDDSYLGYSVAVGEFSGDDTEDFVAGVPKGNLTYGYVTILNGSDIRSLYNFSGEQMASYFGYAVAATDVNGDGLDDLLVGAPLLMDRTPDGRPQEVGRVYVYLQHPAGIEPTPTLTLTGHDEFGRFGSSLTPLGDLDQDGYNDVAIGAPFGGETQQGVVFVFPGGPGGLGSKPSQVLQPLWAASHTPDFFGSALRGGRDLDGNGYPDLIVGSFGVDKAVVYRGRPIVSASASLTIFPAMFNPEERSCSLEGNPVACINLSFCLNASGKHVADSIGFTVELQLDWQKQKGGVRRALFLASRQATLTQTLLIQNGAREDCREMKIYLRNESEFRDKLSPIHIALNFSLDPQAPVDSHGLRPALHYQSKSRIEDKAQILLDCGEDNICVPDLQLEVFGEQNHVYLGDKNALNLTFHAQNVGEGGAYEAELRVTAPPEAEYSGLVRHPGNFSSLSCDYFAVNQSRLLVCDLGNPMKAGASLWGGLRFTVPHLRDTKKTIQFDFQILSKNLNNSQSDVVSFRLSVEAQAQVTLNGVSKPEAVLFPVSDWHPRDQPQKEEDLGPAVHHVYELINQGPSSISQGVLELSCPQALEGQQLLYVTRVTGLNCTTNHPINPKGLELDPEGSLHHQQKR
T5 sequence (P08648 895-1049 partner limits assumed): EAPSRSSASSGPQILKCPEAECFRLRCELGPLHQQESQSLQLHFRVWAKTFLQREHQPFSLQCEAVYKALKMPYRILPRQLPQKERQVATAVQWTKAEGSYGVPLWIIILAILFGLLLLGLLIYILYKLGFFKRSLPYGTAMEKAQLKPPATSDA
T5 sequence (P05556 21-798): as the sequence (P05556 21-798) above
Briefly: Solid phase integrin ligand binding assay. The settings on record: 1 mM Mn2+, 1 mM Ca2+, 1 mM Mg2+. Here is the method: as §2, §3

Turning to `FC(F)(F)c1cccc(-c2noc(-c3cc(-c4ccccc4)c(C(F)(F)F)s3)n2)c1` [SEW2871, reference compound], in test [1], the “reversal of the inhibitory effect of rhAPC on neutrophil migration” value was “did not reverse”.

“SFLLRNPNDKYEPF (Aritficial Sequence) [reference compound]”: the “reversal of the inhibitory effect of rhAPC on neutrophil migration” value in test [1] is recorded as “did not reverse”.

A word on the mortality: it is the percentage killed. As to “acetyl-c[(penicillamine)-O-methyltyrosine-ARGDN(tetrahydroisoquinoline-3-carboxylic acid)C]—NH2 [RGD peptide]”, in [2], the 7-day mortality entry is on record as “no significant change” and the time of survival entry is on record as “reproducibly prolonged”. The “affinity to β1 integrins” value in test [3] was “high affinity”. This molecule also gave a mortality in test [4] of 60%. The “affinity to β3 integrins” value in [5] is given as “high affinity”.

For “rhPC: the zymogen protein C, not activated [reference compound]”, the “fMLP-induced adhesion of human neutrophils to immobilized FN” value in [6] was “failed to block”. For the same molecule, the “random migration of neutrophils on FN induced by fMLP” value in test [1] is listed as “failed to block”.

B1: Gla-less APC: mutant form of APC that lacks the EPCR binding motif (Enzyme Research Lab.) (protein)
chain: SKHVDGDQCLVLPLEHPCASLCCGHGTCIDGIGSFSCDCRSGWEGRFCQREVSFLNCSLDNGGCTHYCLEEVGWRRCSCAPGYKLGDDLLQCHPAVKFPCGRPWKRMEKKRSHLLIDGKMTRRGDSPWQVVLLDSKKKLACGAVLIHPSWVLTAAHCMDESKKLLVRLGEYDLRRWEKWELDLDIKEVFVHPNYSKSTTDNDIALLHLAQPATLSQTIVPICLPDSGLAERELNQAGQETLVTGWGYHSSREKEAKRNRTFVLNFIKIPVVPHNECSEVMSNMVSENMLCAGILGDRQDACEGDSGGPMVASFHGTWFLVGLVSWGEGCGLLHNYGVYTKVSRYLDWIHGHIRDKEAPQKSWAP
Consider B1, for which the “fMLP-induced adhesion of human neutrophils to immobilized FN” value in [6] is reported as “inhibited adhesion to a slightly less, but similar, degree as the wild type protein”. Moreover, the “FRET efficiency between EPCR-mCFP and β1-mYFP” value in test [7] is reported as “No obvious FRET change”.

B2: RGE-APC: rhAPC mutant with the RGD sequence mutated to RGE (Glu in place of Asp-222) (protein)
chain 1: ANSFLEELRHSSLERECIEEICDFEEAKEIFQNVDDTLAFWSKHVDGDQCLVLPLEHPCASLCCGHGTCIDGIGSFSCDCRSGWEGRFCQREVSFLNCSLDNGGCTHYCLEEVGWRRCSCAPGYKLGDDLLQCHPAVKFPCGRPWKRMEKKRSHL
chain 2: LIDGKMTRRGESPWQVVLLDSKKKLACGAVLIHPSWVLTAAHCMDESKKLLVRLGEYDLRRWEKWELDLDIKEVFVHPNYSKSTTDNDIALLHLAQPATLSQTIVPICLPDSGLAERELNQAGQETLVTGWGYHSSREKEAKRNRTFVLNFIKIPVVPHNECSEVMSNMVSENMLCAGILGDRQDACEGDSGGPMVASFHGTWFLVGLVSWGEGCGLLHNYGVYTKVSRYLDWIHGHIRDKEAPQKSWAP
Take B2: the “direct binding to soluble α3β1” value in [8] is “significantly less”. For the same molecule, the “direct binding to soluble αVβ3” value in test [9] is listed as “significantly less”. In [10], the “direct binding to soluble α5β1” value is reported as “significantly less”. Also, the “random migration of neutrophils on FN induced by fMLP” value in test [1] is “had no effect”.
